Measurements taken from US20220409617A1, “Drug Formulations and Methods of Treatment for Metabolic Disorders” (The Regents of the University of California, priority 2019, published 2022).

Assays:
[1] = Plasma pharmacokinetics in mice; assay type: in vivo; conditions: mouse, po, single dose 120 mg/kg by gavage
Procedure: Plasma pharmacokinetic analysis of sphingolipid-like compound 893 was performed by Pharmaron Corporation (Beijing, China). C16:0 ceramide levels were quantified in cells using the method described in (T. Kasumov, et al., Anal. Biochem. 401: 154-161, 2010, the disclosure of which is incorporated herein by reference) with minor modifications. Cultured cells were washed twice in PBS and scraped into 250 μL of HPLC grade water and flash frozen until time of analysis. On the day of analysis, samples were thawed, and an aliquot used for protein quantification. For C16:0 ceramide levels in mouse liver, 25 mg of tissue was homogenized in 1 ml of ice-cold PBS using a mechanical probe homogenizer (VWR, Radnor, Pa.), protein levels quantified, and 50 μl of the homogenate diluted with 150 μl HPLC-grade water for C16:0 ceramide analysis. […] Samples were analyzed by ultra-performance liquid chromatography tandem mass spectrometry (UPLC-MS/MS) using a Waters Micromass Quattro Premier XE equipped with a Waters ACQUITY BEH C4 column (Waters Corp.). […] Standard curves prepared from C16:0 ceramide (#860516, Avanti Polar Lipids, Alabaster, Ala.) dissolved in ethanol were used for quantitation and were linear from 4.1 nM-1,000 nM, with an R^2 of 0.98 or greater.

GLUT1 = conditions: cited from earlier work
diet-induced obesity = assay: Weight loss intervention study in HFD-fed mice; assay type: in vivo
Procedure: Given its ability to correct HFD-induced mitochondrial fragmentation in vivo, sphingolipid-like compound 893 was evaluated as an interventional therapy for diet-induced obesity. Six-week old male, C57BL/6J mice were fed the HFD for 45 days; an age-matched cohort of control mice was maintained on the SD throughout the study. After 45 days, the average body weight of HFD-fed mice was approximately 130% that of chow-fed mice (FIGS. 15 to 17). Using quantitative nuclear magnetic resonance imaging, fat mass represented 21% of the body weight of mice that had consumed the HFD for 45 days and 12% of body weight in controls fed the standard diet; changes in lean body mass were of lesser magnitude (FIG. 17). At this point, HFD-fed mice were randomly assigned to receive vehicle (water), 60 mg/kg, or 120 mg/kg sphingolipid-like compound 893 by gavage; SD mice were treated with vehicle. Based on the increased activity of mice during the dark cycle (ZT12-ZT24) and the plasma pharmacokinetics of orally administered sphingolipid-like compound 893 (see FIG. 12), mice were treated at ZT8.5 on Mondays, Wednesdays, and Fridays. […] In the group receiving 120 mg/kg sphingolipid-like compound 893, the rate of weight loss slowed after 10 days. […] Despite continued treatment with the high dose of sphingolipid-like compound 893, weight loss plateaued once body weight matched that of SD controls (FIGS. 16 and 18). […] As in a prior report where mice were dosed 5-7 days a week for 11 weeks (S. M. Kim, et al., 2016, cited supra), sphingolipid-like compound 893 was well-tolerated, and the behavior of sphingolipid-like compound 893-treated mice was overtly normal throughout the study.
All animal experiments were performed in accordance with the Institutional Animal Care and Use Committee of University of California, Irvine. Male mice were used in all experiments. C57BL/6J mice (stock no 000664) and ob/ob mice (stock no 000632) were purchased from the Jackson Laboratory and were acclimated for 7 days prior to beginning experiments. Mice were housed under a 12:12 h light-dark cycle at 20-22° C. in groups of 4-5. Cages contained ⅛″ corncob bedding (7092A, Envigo, Huntingdon, UK) enriched with ˜6 g of cotton fiber nestlets (Ancare Corp., Bellmore, N.Y.). Access to food and water was ad libitum unless otherwise specified. For HFD studies, 8 week old C57BL/6J males were randomly assigned to either a 45% kcal from fat diet (HFD; D12451, Research Diets Inc., New Brunswick, N.J.) or 10% kcal from fat diet designed to match D12451 for other components (SD; D12450B, Research Diets Inc). Mice were maintained on these diets for up to 22 weeks as indicated. Ob/ob mice were fed the vivarium stock diet which contained 16% kcal from fat (2020×, Envigo). Polypropylene feeding tubes (20 g×38 mm; Instech Laboratories Inc., Plymouth, Pa.) were utilized for gavage and dipped into a 1 g/ml sucrose solution immediately prior to treatment to induce salivation.
HFD-fed mice were randomly assigned to experimental groups receiving either vehicle (water) or sphingolipid-like compound 893 at 60 mg/kg or 120 mg/kg by oral gavage on Mondays, Wednesdays, and Fridays. Mice were maintained on the HFD throughout the study. The SD group was treated with vehicle on the same schedule. Group size was initially n=10; one animal from the 60 mg/kg group that was euthanized due to gavage error was excluded from the analysis making this group n=9. All treatments and measurements were performed between ZT8 and ZT10 unless otherwise noted. Body weight and food consumption were monitored Monday-Friday. Body composition was determined weekly in live animals using an EchoMRI™ Body Composition Analyzer (EchoMRI™ Corp., Singapore). Mice were euthanized and tissues collected 4 h after treatment. Where indicated, mice were fasted for 6 h.

For `CCCCCCCCc1ccc([C@H]2CCN[C@@H]2CO)cc1.Cl` [compound 893], the Tmax [1] is listed as 4 h, the half-life [1] is listed as 10.6 h and the “Effect on GLUT1” value (GLUT1) is listed as “down-regulate GLUT1”. The Fat mass gain (diet-induced obesity; HFD-fed mice, 60 mg/kg) was “gained fat mass at a similar rate to mice fed a standard diet”, the “Body weight versus chow-fed controls” value (diet-induced obesity; HFD-fed mice, 60 mg/kg by gavage Mon/Wed/Fri) was “no longer gained weight, but did not match chow-fed controls” and the “Body weight change during treatment” value (diet-induced obesity; HFD-fed mice, 60 mg/kg or 120 mg/kg by gavage Mon/Wed/Fri) was “dose-dependent weight loss”. The “Body weight versus chow-fed controls” value (diet-induced obesity; HFD-fed mice, 120 mg/kg by gavage Mon/Wed/Fri, after 2 weeks (6 doses)) was “no longer statistically different from that of mice continuously fed a standard chow diet”, the Tolerability (diet-induced obesity; HFD-fed mice, 60 or 120 mg/kg Mon/Wed/Fri) was “well-tolerated” and the “Body composition underlying weight loss (fat mass, lean mass)” value (diet-induced obesity; HFD-fed mice, 60 or 120 mg/kg, EchoMRI) was “a decline in fat mass with little change in lean mass”. The “Reduction of body weight” value (diet-induced obesity; HFD-fed wild type mice, six doses of 120 mg/kg over 2 weeks) was 10%.
